This is an account of results in patent US9624214B2, “Amino-substituted imidazo[1,2-a]pyridinecarboxamides and their use” (BAYER PHARMA AKTIENGESELLSCHAFT, priority 2012, dated 2017).

This test has as its target T1, recombinant guanylate cyclase reporter cell line (Rattus norvegicus, UniProt P19686+P20595).
T1 construct: expressed in transfected cells
T1 sequence (P20595 1-619): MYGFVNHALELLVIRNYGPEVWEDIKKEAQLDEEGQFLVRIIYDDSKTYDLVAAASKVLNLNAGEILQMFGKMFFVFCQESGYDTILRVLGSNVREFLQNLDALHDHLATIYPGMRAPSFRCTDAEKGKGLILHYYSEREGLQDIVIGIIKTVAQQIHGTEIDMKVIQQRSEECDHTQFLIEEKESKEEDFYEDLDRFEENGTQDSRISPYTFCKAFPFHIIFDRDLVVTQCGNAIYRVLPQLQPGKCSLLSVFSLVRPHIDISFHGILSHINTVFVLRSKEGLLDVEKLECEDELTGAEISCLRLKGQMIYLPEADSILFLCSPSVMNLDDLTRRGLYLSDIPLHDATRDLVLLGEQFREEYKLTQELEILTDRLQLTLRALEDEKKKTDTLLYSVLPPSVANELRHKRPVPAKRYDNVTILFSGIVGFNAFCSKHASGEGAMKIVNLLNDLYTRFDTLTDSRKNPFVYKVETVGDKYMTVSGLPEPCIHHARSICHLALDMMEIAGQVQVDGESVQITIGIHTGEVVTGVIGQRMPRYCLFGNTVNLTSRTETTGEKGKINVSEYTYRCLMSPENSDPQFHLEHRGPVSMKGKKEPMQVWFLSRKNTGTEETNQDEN
T1 sequence (P19686 1-690): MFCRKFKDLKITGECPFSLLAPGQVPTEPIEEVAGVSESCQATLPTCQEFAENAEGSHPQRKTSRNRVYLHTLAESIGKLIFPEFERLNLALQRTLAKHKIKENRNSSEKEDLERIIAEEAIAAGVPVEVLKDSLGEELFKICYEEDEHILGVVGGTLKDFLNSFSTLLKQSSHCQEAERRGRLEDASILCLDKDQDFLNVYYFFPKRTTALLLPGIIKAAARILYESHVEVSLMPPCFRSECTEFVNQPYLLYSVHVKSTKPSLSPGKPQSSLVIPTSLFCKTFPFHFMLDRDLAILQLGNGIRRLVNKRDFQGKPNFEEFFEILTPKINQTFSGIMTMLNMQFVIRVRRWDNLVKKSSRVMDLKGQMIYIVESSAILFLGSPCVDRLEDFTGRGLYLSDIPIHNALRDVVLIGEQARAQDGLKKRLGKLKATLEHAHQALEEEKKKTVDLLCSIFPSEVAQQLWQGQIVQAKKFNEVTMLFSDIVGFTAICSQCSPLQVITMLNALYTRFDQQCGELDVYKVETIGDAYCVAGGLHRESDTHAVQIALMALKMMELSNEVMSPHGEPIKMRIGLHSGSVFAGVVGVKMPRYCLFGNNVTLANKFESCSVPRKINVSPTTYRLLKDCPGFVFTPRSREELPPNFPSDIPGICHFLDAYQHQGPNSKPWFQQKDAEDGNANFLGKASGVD
Nature of the test: B-2. Action on recombinant guanylate cyclase reporter cell line. In kind it is cell-based. As to conditions: MEC = minimal effective concentration; in some cases mean values from individual determinations. The gist of the method:
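Rat recombinant guanylate cyclase reporter cell line measures cellular activity. Value reported as MEC (minimal effective concentration), sometimes averaged over individual determinations.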

With `Cc1nc2c(OCc3c(F)cccc3F)cccn2c1C(=O)NCC(C)(C)N` [Example 72, N-(2-Amino-2-methylpropyl)-8-[(2,6-difluorobenzyl)oxy]-2-methylimidazo[1,2-a]pyridine-3-carboxamide], the MEC worked out at 0.30 µM.

As to `Cc1nc2c(OCc3c(F)cccc3F)cc(Cl)cn2c1C(=O)NCC(C)(C)N` [Example 73, N-(2-Amino-2-methylpropyl)-6-chloro-8-[(2,6-difluorobenzyl)oxy]-2-methylimidazo[1,2-a]-pyridine-3-carboxamide], the MEC is 0.30 µM.

In the case of `Cc1nc2c(OCc3c(F)cccc3F)cccn2c1C(=O)NCCNc1ccc(F)cc1` [Example 79, 8-[(2,6-difluorobenzyl)oxy]-N-{2-[(4-fluoro-phenyl)amino]ethyl}-2-methylimidazo[1,2-a]-pyridine-3-carboxamide], the MEC was 1.00 µM.

With `Cc1nc2c(OCc3c(F)cccc3F)cccn2c1C(=O)NC1CC(C)(C)NC(C)(C)C1` [Example 82, 8-[(2,6-Difluorobenzyl)oxy]-2-methyl-N-(2,2,6,6-tetramethylpiperidin-4-yl)imidazo[1,2-a]-pyridine-3-carboxamide], the MEC was 0.20 µM.

On to `Cc1nc2c(OCc3c(F)cccc3F)cccn2c1C(=O)NC1CC(C)(C)N(C)C(C)(C)C1` [Example 83, 8-[(2,6-difluorobenzyl)oxy]-2-methyl-N-(1,2,2,6,6-pentamethylpiperidin-4-yl)imidazo[1,2-a]pyridine-3-carboxamide], for which the MEC amounted to 0.10 µM.

`Cc1nc2c(OCc3c(F)cccc3F)cccn2c1C(=O)NCCN(C)C` [Example 86, 8-[(2,6-difluorobenzyl)oxy]-N-[2-(dimethyl-amino)ethyl]-2-methylimidazo[1,2-a]pyridine-3-carboxamide]: the MEC was 2.00 µM.

Consider `Cc1nc2c(OCc3c(F)cccc3F)cccn2c1C(=O)NCCCN(C)C` [Example 87, 8-[(2,6-difluorobenzyl)oxy]-N-[3-(dimethyl-amino)propyl]-2-methylimidazo[1,2-a]-pyridine-3-carboxamide], for which the MEC came to 1.00 µM.

Regarding `Cc1nc2c(OCc3c(F)cccc3F)cccn2c1C(=O)NCCN(C(C)C)C(C)C` [Example 88, 8-[(2,6-difluorobenzyl)oxy]-N-[2-(diisopropyl-amino)ethyl]-2-methylimidazo[1,2-a]pyridine-3-carboxamide], the MEC came out at 1.00 µM.

Take `Cc1nc2c(OCc3c(F)cccc3F)cccn2c1C(=O)NCCN1CCOCC1` [Example 89, 8-[(2,6-difluorobenzyl)oxy]-2-methyl-N-[2-(morpholin-4-yl)ethyl]imidazo[1,2-a]pyridine-3-carboxamide]: the MEC was found to be 0.65 µM.

With `Cc1nc2c(OCc3c(F)cccc3F)cccn2c1C(=O)NC1CC2CCCC(C1)N2C` (centres unmarked) [Example 90, 8-[(2,6-difluorobenzyl)oxy]-2-methyl-N-(9-methyl-9-azabicyclo[3.3.1]non-3-yl)imidazo[1,2-a]pyridine-3-carboxamide], the MEC was found to be 0.10 µM.

On to `Cc1nc2c(OCc3c(F)cccc3F)cccn2c1C(=O)NC1CC2CCC(C1)N2C` (centres unmarked) [Example 91, 8-[(2,6-difluorobenzyl)oxy]-2-methyl-N-(8-methyl-8-azabicyclo[3.2.1]oct-3-yl)imidazo[1,2-a]pyridine-3-carboxamide], for which the MEC worked out at 1.00 µM.

Turning to `Cc1nc2c(OCc3c(F)cccc3F)cccn2c1C(=O)NC1CN2CCC1CC2` (centres unmarked) [Example 92, N-(1-azabicyclo[2.2.2]oct-3-yl)-8-[(2,6-difluorobenzyl)oxy]-2-methylimidazo[1,2-a]-pyridine-3-carboxamide], the MEC is 0.30 µM.

On to `Cc1cc(OCc2c(F)cccc2F)c2nc(C)c(C(=O)NCC(C)(C)NCC(F)(F)F)n2c1` [Example 94, 8-[(2,6-Difluorobenzyl)oxy]-2,6-dimethyl-N-{2-methyl-2-[(2,2,2-trifluoroethyl)amino]propyl}-imidazo[1,2-a]pyridine-3-carboxamide], for which the MEC is 0.30 µM.

As to `[2H]C([2H])(Oc1cccn2c(C(=O)NC(CN)c3ccc(F)c(F)c3)c(C)nc12)c1c(F)cccc1F` (stereo not drawn) [Example 97, ent-N-[2-Amino-1-(3,4-difluorophenyl)ethyl]-8-{[(2,6-difluorophenyl) (^2H2)methyl]oxy}-2-methylimidazo[1,2-a]pyridine-3-carboxamide], the MEC is 0.10 µM.

Consider `Cc1nc2c(OCc3ccccc3F)cccn2c1C(=O)NC(CN)c1ccc(F)c(F)c1` (stereo not drawn) [Example 98, ent-N-[2-Amino-1-(3,4-difluorophenyl)ethyl]-8-[(2-fluorobenzyl)oxy]-2-methylimidazo[1,2-a]-pyridine-3-carboxamide], for which the MEC was 1.00 µM.

Turning to `Cc1nc2c(OCc3cccc(F)c3F)cccn2c1C(=O)NC(CN)c1ccc(F)c(F)c1` (stereo not drawn) [Example 99, ent-N-[2-amino-1-(3,4-difluorophenyl)ethyl]-8-[(2,3-difluorobenzyl)oxy]-2-methylimidazo[1,2-a]pyridine-3-carboxamide], the MEC is 1.00 µM.

As for `Cc1nc2c(OCc3c(F)ccc(F)c3F)cccn2c1C(=O)NC(CN)c1ccc(F)c(F)c1` (stereo not drawn) [Example 100, ent-N-[2-amino-1-(3,4-difluorophenyl)ethyl]-2-methyl-8-[(2,3,6-trifluorobenzyl)oxy] imidazo[1,2-a]pyridine-3-carboxamide], the MEC turned out to be 0.30 µM.

As for `Cc1nc2c(OCc3c(F)cc(F)cc3F)cccn2c1C(=O)NC(CN)c1ccc(F)c(F)c1` (stereo not drawn) [Example 101, ent-N-[2-amino-1-(3,4-difluorophenyl)ethyl]-2-methyl-8-[(2,4,6-trifluorobenzyl)oxy] imidazo[1,2-a]pyridine-3-carboxamide], the MEC was determined as 1.00 µM.

Take `Cc1nc2c(OCc3c(F)cccc3Cl)cccn2c1C(=O)NC(CN)c1ccc(F)c(F)c1` (stereo not drawn) [Example 102, ent-N-[2-amino-1-(3,4-difluorophenyl)ethyl]-8-[(2-chloro-6-fluorobenzyl)oxy]-2-methylimidazo[1,2-a]pyridine-3-carboxamide]: the MEC came to 1.00 µM.

On to `Cc1nc2c(OCc3c(F)cccc3F)cccn2c1C(=O)NCC(C)(C)CN` [Example 103, N-(3-amino-2,2-dimethylpropyl)-8-[(2,6-difluorobenzyl)oxy]-2-methylimidazo[1,2-a]-pyridine-3-carboxamide], for which the MEC stood at 3.00 µM.

On to `Cc1nc2c(OCc3c(F)cccc3F)cc(Cl)cn2c1C(=O)NCCC(C)(C)N` [Example 104, N-(3-Amino-3-methylbutyl)-6-chloro-8-[(2,6-difluorobenzyl)oxy]-2-methylimidazo[1,2-a]-pyridine-3-carboxamide], for which the MEC is 0.30 µM.

`Cc1cc(OCc2c(F)cccc2F)c2nc(C)c(C(=O)NCCC(C)(C)N)n2c1` [Example 114, N-(3-amino-3-methylbutyl)-8-[(2,6-difluorobenzyl)oxy]-2,6-dimethylimidazo[1,2-a]-pyridine-3-carboxamide]: the MEC was 0.30 µM.

Consider `Cc1cc(OCc2c(F)cccc2F)c2nc(C)c(C(=O)NC[C@@H]3CCCN3)n2c1` [Example 115, 8-[(2,6-difluorobenzyl)oxy]-2,6-dimethyl-N-[(2S)-pyrrolidin-2-ylmethyl]imidazo[1,2-a]-pyridine-3-carboxamide], for which the MEC worked out at 1.00 µM.

`Cc1cc(OCc2c(F)cccc2F)c2nc(C)c(C(=O)NC[C@H]3CCCN3)n2c1` [Example 116, 8-[(2,6-difluorobenzyl)oxy]-2,6-dimethyl-N-[(2R)-pyrrolidin-2-ylmethyl]imidazo[1,2-a]-pyridine-3-carboxamide]: the MEC stood at 3.00 µM.

As for `Cc1nc2c(OCc3c(F)cccc3F)cccn2c1C(=O)NCCC(C)(C)N` [Example 117, N-(3-amino-3-methylbutyl)-8-[(2,6-difluorobenzyl)oxy]-2-methylimidazo[1,2-a]-pyridine-3-carboxamide], the MEC was determined as 1.00 µM.

Regarding `Cc1nc2c(OCc3c(F)cccc3F)cccn2c1C(=O)NC(C)[C@H](C)N` (stereo partly drawn) [Example 120, N-[(3S)-3-Aminobutan-2-yl]-8-[(2,6-difluorobenzyl)oxy]-2-methylimidazo[1,2-a]pyridine-3-carboxamide], the MEC stood at 0.30 µM.
